Measurements taken from ChEMBL document CHEMBL1201862, “PubChem BioAssay data set” (2004).
The source made the active and inactive calls.

How the values were obtained:
CAAX prenyl protease 2 = CAAX prenyl protease 2 (Homo sapiens, UniProt Q9Y256); experiment: human Rce1 protease inhibitors, dose response, biochemical, yeast membranes, quenched-peptide fluorescence, cherry-pick (AID 588849)
HEK293 = experiment: cells; assay type: functional, cell-based; details: Homo sapiens
[1] = target: Nuclear receptor subfamily 0 group B member 1 (Homo sapiens, UniProt P51843); experiment: Luminescence-based cell-based high throughput dose response assay for inhibitors of the orphan nuclear receptor subfamily 0, group B, member 1 (DAX1; NR0B1). [Related pubchem assays (depositor defined):AID504766, AID504790]; assay type: functional
Sequence of Nuclear receptor subfamily 0 group B member 1 (P51843 whole entry): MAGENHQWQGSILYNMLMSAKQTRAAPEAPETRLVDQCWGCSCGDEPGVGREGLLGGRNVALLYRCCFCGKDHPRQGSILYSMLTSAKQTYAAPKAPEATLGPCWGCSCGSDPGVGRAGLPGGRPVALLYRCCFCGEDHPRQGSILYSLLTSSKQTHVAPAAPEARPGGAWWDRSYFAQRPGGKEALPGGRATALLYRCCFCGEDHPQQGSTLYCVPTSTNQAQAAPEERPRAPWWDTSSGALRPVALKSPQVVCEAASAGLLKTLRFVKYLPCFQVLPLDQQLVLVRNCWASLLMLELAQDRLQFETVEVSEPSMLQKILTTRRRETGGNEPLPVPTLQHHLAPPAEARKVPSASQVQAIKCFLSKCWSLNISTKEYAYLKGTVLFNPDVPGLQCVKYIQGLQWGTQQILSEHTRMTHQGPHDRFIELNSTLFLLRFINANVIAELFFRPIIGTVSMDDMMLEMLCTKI

[2] = target: Beta-adrenergic receptor kinase 1 (Homo sapiens, UniProt P25098); experiment: aptamer displacement from bead-bound GRK2 – biochemical, cherry pick 1, bead flow cytometry, dose response (AID 504500)
Sequence of Beta-adrenergic receptor kinase 1 (P25098 whole entry): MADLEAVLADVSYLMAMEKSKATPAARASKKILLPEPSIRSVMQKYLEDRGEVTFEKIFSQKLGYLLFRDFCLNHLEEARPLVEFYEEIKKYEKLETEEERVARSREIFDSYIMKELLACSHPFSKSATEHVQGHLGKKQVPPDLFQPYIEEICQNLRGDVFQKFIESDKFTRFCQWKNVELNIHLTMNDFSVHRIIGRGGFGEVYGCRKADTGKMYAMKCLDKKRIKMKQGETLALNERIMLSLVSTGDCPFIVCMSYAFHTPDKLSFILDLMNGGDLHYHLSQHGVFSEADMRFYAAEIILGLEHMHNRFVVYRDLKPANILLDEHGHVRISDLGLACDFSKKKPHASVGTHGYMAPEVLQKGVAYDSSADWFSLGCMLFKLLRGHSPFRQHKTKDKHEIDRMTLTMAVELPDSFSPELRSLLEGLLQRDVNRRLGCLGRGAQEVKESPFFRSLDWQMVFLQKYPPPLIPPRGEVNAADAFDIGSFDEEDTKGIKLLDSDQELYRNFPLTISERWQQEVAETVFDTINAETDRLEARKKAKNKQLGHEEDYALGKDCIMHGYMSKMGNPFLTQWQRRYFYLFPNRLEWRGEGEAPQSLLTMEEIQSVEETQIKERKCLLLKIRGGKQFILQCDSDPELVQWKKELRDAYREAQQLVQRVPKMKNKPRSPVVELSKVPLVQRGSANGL

[3] = Luminescence Cell-Based Dose Retest to Confirm Inhibitors of Cancer Stem Cells. [Related pubchem assays (depositor defined):AID2717, AID2721]; assay type: functional; details: Homo sapiens
[4] = cytotoxicity in HMLE control line with eGFP shRNA, dose response, counter-screen for HMLE_sh_ECad selective toxicity project, cell-based, HMLE_sh_eGFP, luminescence (AID 463074); assay type: functional, Homo sapiens;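 further: HMLE human mammary epithelial cells expressing control shRNA against eGFP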
INS1 [5] = experiment: beta cell apoptosis inhibitors, cytokine rescue, dose response, luminescence, retest (AID 449756); assay type: functional, cell-based; details: Rattus norvegicus;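 further: cell death triggered by IL-1 beta plus TNF-alpha plus IFN-gamma mixture; protective hits raise ATP signal compared with cytokine alone wells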
[6] = target: NACHT, LRR and PYD domains-containing protein 3 (Homo sapiens, UniProt Q96P20); experiment: NALP3 inhibitors in yeast, dose response, luminescent (AID 488799); assay type: functional
CHO = experiment: cytotoxicity in TLR9-MyD88 CHO cells, dose response, cytotoxicity control for TLR9-MyD88 binding inhibitor project, cell-based, luminescence (AID 588339); assay type: functional, hamster; details: Cricetulus griseus;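 further: CHO cells stably coexpressing TLR9 and MyD88 fusions from primary screen; compound exposure lasted 48 hours before viability readout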
[7] = target: T1, Replicative DNA helicase DnaB (Mycobacterium tuberculosis, UniProt P9WMR3); experiment: DnaB intein splicing inhibitors, dose response, biochemical, cell-free fluorescence (AID 449749); assay type: functional
T1 sequence (P9WMR3 whole entry): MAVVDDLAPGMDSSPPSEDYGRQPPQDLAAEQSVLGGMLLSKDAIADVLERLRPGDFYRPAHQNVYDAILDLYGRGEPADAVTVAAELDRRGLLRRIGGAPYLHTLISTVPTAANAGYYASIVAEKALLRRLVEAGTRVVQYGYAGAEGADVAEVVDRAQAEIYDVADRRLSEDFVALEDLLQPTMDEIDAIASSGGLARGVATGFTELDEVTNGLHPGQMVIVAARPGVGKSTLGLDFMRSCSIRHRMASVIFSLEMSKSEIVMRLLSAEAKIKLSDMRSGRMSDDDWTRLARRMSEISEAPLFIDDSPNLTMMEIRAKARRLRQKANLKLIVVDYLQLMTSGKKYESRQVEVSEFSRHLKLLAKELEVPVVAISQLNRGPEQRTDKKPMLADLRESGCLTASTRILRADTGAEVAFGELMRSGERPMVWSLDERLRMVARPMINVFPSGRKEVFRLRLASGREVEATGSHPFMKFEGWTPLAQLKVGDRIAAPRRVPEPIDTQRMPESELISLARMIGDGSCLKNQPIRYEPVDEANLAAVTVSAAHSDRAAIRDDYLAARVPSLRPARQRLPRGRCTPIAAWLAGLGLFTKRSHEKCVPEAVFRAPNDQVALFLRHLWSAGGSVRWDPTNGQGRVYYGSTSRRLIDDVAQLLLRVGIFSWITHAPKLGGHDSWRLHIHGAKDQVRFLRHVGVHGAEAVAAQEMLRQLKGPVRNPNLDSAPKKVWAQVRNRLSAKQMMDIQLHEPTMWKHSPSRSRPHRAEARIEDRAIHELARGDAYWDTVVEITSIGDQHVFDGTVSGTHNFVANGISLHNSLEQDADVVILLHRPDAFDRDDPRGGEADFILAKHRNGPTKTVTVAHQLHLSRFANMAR

[8] = target: Heat shock protein HSP 90-alpha (Homo sapiens, UniProt P07900); assay type: functional, organism-based
Protein RecA = target: T2, Protein RecA (Mycobacterium tuberculosis, UniProt P9WHJ3); experiment: Fluorescence Cell-Free Homogeneous Dose Retest to Identify Inhibitors of RecA-Intein Splicing Activity. [Related pubchem assays (depositor defined):AID2097, AID2223, AID489010, AID492950]; assay type: functional
T2 sequence (P9WHJ3 whole entry): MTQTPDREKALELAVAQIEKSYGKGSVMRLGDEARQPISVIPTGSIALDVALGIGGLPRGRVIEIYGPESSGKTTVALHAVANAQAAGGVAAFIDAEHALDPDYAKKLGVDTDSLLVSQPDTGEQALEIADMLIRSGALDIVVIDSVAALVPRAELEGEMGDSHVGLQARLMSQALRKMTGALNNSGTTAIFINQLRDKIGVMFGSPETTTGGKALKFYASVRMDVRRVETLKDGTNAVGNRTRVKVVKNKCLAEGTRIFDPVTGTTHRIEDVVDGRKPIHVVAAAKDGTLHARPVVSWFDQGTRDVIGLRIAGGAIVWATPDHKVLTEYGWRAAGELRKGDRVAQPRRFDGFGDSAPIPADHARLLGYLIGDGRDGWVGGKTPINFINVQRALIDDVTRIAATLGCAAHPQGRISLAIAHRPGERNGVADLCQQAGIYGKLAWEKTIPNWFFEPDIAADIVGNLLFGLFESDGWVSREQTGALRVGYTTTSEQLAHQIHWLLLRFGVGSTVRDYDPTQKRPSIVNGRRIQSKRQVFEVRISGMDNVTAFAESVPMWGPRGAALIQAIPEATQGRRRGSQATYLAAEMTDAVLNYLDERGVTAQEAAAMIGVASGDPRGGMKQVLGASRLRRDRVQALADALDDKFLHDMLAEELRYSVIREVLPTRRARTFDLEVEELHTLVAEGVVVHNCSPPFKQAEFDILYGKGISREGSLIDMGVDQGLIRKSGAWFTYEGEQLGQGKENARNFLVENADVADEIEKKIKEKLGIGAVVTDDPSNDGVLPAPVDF

Beta Lactamase = Beta Lactamase (Pseudomonas aeruginosa, UniProt Q932Y6); experiment: beta-lactamase reporter inhibitor potency, dose response, artefact control for TLR9-MyD88 binding inhibitor project, BLA reporter cells, FRET fluorescence (AID 588341); assay type: cell-based;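 further: cell based assay in CHO-K1 cells stably expressing beta-lactamase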
Sequence of Beta Lactamase (Q932Y6 whole entry): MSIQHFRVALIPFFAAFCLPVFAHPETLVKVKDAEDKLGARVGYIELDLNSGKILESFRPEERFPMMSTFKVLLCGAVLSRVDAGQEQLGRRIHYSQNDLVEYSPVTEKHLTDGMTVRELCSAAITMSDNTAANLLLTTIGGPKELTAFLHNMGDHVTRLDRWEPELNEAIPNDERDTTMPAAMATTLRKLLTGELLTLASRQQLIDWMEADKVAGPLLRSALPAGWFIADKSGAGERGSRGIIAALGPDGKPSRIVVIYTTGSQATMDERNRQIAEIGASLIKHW

[9] = Shn3 3'UTR reporter inhibitors, dose response, cell-based, Clone20 osteoblasts, firefly luciferase, cherry-picked (AID 624132); assay type: functional;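 further: firefly luciferase luminescence from reporter carrying the Shn3 3'UTR in osteoblasts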
[10] = target: ATP-binding cassette sub-family B member 6 (Homo sapiens, UniProt Q9NP58); experiment: ABCB6 transporter inhibitors, dose response, K562-ABCB6 cells, flow cytometry, cherry pick 1 (AID 623955); assay type: functional; details: read-out: EC50_MICROM
[11] = HepG2 cell cytotoxicity, dose response, cytotoxicity control for Shn3 inhibitor project, CellTiter-Glo, cherry-picked (AID 624134); assay type: functional, cell-based
[12] = control 3'UTR Renilla luciferase suppression, dose response, counter-screen for Shn3 inhibitor project, cell-based, Clone20-Shn3RL, cherry-picked (AID 624133); assay type: functional
[13] = target: T3, Voltage-gated N-type calcium channel alpha-1B subunit/Amyloid beta A4 precursor protein-binding family A member 1 (Homo sapiens, UniProt Q00975+Q02410); assay type: protein assay
T3 sequence (Q00975 whole entry): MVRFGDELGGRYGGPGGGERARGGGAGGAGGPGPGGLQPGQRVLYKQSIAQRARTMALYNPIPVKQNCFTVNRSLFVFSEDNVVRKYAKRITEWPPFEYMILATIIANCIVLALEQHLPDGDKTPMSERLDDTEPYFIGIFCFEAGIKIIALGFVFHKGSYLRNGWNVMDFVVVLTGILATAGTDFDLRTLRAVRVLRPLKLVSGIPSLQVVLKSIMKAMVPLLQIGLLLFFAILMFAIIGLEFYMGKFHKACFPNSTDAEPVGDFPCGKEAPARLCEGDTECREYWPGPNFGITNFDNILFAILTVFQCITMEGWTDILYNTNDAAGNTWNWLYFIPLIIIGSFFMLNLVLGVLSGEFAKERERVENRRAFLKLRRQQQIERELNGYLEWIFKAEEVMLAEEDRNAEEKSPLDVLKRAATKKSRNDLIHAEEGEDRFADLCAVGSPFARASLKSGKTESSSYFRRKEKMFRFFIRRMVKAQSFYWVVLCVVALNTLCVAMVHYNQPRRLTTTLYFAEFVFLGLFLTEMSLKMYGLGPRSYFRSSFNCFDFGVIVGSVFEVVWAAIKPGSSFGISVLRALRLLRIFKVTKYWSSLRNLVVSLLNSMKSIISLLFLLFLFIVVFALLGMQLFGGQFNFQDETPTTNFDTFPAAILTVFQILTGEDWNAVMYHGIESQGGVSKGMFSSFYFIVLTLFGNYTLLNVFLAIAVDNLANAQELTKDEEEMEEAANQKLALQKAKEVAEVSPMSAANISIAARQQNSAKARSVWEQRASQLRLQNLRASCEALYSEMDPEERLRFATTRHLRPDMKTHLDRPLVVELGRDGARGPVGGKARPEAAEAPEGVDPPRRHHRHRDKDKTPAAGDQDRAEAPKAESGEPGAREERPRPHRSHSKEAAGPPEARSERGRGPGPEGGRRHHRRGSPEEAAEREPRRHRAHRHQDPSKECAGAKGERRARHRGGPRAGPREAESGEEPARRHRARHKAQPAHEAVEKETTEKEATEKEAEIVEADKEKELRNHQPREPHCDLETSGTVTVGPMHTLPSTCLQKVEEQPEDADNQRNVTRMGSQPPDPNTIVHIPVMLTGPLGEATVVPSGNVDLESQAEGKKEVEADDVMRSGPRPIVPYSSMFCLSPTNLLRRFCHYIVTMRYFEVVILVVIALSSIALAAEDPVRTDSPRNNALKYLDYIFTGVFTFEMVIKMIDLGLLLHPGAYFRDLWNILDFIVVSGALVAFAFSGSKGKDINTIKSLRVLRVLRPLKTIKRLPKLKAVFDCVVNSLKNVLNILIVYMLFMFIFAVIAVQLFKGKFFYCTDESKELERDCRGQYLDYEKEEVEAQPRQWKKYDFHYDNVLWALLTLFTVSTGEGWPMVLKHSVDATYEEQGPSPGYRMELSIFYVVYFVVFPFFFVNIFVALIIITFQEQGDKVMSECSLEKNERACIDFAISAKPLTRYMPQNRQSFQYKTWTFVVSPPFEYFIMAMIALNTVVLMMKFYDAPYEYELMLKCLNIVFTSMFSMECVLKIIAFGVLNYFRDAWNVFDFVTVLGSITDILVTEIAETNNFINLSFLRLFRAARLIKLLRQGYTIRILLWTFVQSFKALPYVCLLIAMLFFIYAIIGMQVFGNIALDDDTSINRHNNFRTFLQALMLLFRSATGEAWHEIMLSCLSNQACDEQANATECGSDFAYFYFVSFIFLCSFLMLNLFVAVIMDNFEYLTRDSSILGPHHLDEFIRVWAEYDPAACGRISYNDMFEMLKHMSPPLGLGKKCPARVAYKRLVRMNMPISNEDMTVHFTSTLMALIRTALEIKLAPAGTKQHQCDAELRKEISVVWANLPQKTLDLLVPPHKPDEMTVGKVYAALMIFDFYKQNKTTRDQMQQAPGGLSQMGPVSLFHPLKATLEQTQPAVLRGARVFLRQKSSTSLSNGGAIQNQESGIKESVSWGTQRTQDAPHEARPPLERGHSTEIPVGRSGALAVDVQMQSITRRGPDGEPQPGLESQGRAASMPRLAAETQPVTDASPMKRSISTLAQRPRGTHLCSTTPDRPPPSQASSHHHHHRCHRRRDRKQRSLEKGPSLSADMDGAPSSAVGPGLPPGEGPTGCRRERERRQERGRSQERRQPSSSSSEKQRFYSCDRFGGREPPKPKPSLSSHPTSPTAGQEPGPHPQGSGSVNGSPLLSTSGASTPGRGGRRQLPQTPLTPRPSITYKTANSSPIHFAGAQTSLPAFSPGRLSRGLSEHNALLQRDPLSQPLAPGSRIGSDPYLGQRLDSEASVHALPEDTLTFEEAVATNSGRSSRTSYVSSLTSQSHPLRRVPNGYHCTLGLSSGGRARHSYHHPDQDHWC
T3 sequence (Q02410 whole entry): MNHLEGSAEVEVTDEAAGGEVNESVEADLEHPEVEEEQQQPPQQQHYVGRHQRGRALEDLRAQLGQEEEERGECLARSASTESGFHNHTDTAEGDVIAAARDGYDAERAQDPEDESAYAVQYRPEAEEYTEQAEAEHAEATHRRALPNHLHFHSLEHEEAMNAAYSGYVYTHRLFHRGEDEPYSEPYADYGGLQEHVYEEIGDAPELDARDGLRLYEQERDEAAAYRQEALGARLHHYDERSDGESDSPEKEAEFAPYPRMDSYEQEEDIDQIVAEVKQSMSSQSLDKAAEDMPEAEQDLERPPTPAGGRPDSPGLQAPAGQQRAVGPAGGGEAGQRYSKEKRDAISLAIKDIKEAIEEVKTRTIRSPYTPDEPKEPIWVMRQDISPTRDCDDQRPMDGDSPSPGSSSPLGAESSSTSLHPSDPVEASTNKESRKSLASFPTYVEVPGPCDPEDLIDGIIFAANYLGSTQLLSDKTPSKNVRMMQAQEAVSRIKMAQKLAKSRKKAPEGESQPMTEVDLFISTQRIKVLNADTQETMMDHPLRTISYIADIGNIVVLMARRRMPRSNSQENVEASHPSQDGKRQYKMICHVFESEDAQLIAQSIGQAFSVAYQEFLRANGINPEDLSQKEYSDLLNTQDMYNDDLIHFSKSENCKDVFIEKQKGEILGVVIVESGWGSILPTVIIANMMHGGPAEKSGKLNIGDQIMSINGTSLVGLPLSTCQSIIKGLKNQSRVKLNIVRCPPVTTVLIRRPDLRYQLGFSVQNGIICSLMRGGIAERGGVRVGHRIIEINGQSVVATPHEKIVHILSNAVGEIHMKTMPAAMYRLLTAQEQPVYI

[14] = target: T3, Voltage-gated N-type calcium channel alpha-1B subunit/Amyloid beta A4 precursor protein-binding family A member 1; assay type: protein assay; remark: listed apart in the source
[15] = target: T4, Apoptotic protease-activating factor 1 (Homo sapiens, UniProt O14727); experiment: activation of Apaf-1 mediated apoptosis – fluorescent, uHTS hits, dose response (AID 588554); assay type: functional
T4 sequence (O14727 whole entry): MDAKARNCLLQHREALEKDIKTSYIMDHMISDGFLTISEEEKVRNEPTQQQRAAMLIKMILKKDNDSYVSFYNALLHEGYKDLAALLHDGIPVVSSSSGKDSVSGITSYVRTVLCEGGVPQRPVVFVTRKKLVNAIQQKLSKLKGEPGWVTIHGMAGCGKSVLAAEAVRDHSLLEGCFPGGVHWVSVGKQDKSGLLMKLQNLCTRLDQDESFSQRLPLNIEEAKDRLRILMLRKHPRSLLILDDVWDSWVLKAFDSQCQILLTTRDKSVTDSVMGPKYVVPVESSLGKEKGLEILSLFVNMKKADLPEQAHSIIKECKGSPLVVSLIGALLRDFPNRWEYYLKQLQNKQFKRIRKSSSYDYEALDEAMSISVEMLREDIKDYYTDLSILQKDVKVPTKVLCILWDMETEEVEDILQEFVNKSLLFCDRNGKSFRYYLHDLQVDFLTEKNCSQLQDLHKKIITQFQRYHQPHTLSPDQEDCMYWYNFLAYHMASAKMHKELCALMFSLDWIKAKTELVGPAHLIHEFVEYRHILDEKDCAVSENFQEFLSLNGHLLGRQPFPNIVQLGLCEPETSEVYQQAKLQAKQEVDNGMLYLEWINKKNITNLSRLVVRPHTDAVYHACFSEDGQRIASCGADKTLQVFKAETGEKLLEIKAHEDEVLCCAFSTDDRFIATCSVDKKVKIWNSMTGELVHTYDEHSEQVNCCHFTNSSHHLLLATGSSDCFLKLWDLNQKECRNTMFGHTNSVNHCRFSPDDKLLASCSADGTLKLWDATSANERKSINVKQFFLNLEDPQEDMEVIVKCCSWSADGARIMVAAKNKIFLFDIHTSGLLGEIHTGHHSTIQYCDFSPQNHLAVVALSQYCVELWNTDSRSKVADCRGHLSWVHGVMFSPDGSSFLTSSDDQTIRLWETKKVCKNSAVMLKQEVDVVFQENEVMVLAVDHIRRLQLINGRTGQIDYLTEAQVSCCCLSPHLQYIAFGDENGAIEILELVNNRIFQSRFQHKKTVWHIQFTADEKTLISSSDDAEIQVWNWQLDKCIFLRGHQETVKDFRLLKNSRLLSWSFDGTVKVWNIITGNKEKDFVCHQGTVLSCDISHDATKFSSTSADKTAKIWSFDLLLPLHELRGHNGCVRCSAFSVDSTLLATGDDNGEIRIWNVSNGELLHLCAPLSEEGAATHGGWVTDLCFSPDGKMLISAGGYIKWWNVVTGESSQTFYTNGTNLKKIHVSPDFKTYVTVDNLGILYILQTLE

INS1 [16] = experiment: protection of INS-1E cells from cytokine death, dose response, ATP luminescence, dry powder (AID 488844); assay type: functional, cell-based; details: Rattus norvegicus
INS1 [17] = experiment: caspase-3/7 inhibition in cytokine-treated INS-1E, dose response, beta-cell apoptosis inhibitor project, cell-based, caspase luminescence, dry powder (AID 488848); assay type: functional; details: Rattus norvegicus
INS1 [18] = experiment: protection from cytokine-induced mitochondrial depolarization, dose response, cell-based, INS-1E, JC-1 fluorescence ratio, dry powder (AID 488931); assay type: functional; details: Rattus norvegicus
[19] = Luminescence Cell-Based Dose Confirmation HTS to Identify Activators of 5'UTR Stem-Loop Driven Alpha-Synuclein mRNA Translation in H4 Neuroglioblastoma Cells. [Related pubchem assays: 1829 (Project Summary), 1814 (Primary HTS)]; assay type: functional
[20] = Luminescence Cell-Based Dose Response HTS to Identify Activators of Luciferase Translation or Activity in H4 […] Cells. [Related pubchem assays: 1829 (Project Summary), 1814 (Primary HTS)]; assay type: functional
H4 = experiment: Luminescence Cell-Based Dose Response HTS to Identify Activators of 5'UTR Stem-Loop Driven Prion Protein mRNA Translation in H4 Neuroglioblastoma Cells. [Related pubchem assays: 1829 (Project Summary), 1814 (Primary HTS)]; assay type: functional; details: Homo sapiens
HeLa = experiment: HeLa cell cytotoxicity, dose response, cytotoxicity control for MITF activator project, CellTiter-Glo luminescence, cherry-pick samples (AID 540259); assay type: functional, cell-based; details: Homo sapiens

Sequence of CAAX prenyl protease 2 (Q9Y256 whole entry): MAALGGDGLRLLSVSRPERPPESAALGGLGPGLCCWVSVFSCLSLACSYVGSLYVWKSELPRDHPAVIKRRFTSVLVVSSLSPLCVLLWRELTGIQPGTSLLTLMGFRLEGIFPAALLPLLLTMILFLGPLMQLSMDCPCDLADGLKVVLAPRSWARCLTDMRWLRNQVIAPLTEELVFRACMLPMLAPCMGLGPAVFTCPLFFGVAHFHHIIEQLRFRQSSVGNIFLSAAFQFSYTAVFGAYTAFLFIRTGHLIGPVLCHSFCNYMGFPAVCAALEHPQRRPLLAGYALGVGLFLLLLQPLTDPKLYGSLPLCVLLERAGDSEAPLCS

COc1cccc(/C=C/C(=O)OCC(=O)Nc2ccc(Cl)c(S(=O)(=O)N(C)C)c2)c1OC
AC50 (CAAX prenyl protease 2): 20.9 µM (active)

CCOc1ccc2nc(NS(=O)(=O)Cc3ccccc3)sc2c1
IC50 (HEK293): > 67.5 µM (inactive)
IC50 [1]: > 67.5 µM (inactive)

CCCC[N+](C)(C)CCC(=O)NC(C)(C)CS(=O)(=O)[O-]
EC50 [2]: 4.53 µM (active)

C=CC[n+]1c(-c2ccc(OCC)cc2)csc1NNC(=O)Nc1ccccc1
AC50 [3]: 88.4 µM (active)
AC50 [4]: 24.7 µM (active)
AC50 (INS1 [5]): 6.63 µM (active)

Cc1ccc(NC(=O)c2nc(S(=O)(=O)Cc3ccccc3)ncc2Cl)cc1
IC50 [6]: 3.58 µM (active)
AC50 [3]: 2.57 µM (active)
IC50 (CHO): 3.31 µM (active)
AC50 [7]: 23 µM (active)
AC50 [8]: 3.21 µM (active)
EC50 (Protein RecA): 0.88 µM (active)
IC50 (Beta Lactamase): 8.3 µM (active)
AC50 (INS1 [5]): 9.27 µM (active)
AC50 [9]: 3.42 µM (active)
EC50 [10]: 34.7 µM (active)
AC50 [11]: 24.6 µM (active)
AC50 [12]: 6.01 µM (active)

O=C(CCS(=O)(=O)c1ccc(Br)cc1)NCc1ccco1
IC50 [13]: 12.1 µM (active)
IC50 [14]: > 50 µM (inactive)
EC50 [15]: 23.4 µM (active)

C[C@@H]1CN([C@@H](C)CO)C(=O)c2cccc(NC(=O)Nc3ccc(F)cc3)c2O[C@H]1CN(C)S(=O)(=O)c1ccc(F)cc1
AC50 (INS1 [16]): 72 µM (active)
AC50 (INS1 [17]): > 195 µM (inactive)
AC50 (INS1 [18]): 63.3 µM (active)

COc1ccc(/C(O)=C/C=N/c2cccc(C)n2)cc1OC
EC50 [19]: 0.146 µM (active)
EC50 [20]: 0.122 µM (active)
EC50 (H4): 48.3 µM (active)
AC50 (HeLa): 50.8 µM (active)
